Reference: patent US4122202A, “Amino-3H-isobenzofuranones N-substitutes and their therapeutic application” (Societe Cortial, priority 1975, dated 1978)
Like-named read-outs stand apart in the source and are kept apart here.

How the values were obtained:
mice [1] = assay: Oral toxicity in mice (LDO, LD50); assay type: in vivo; details: gummy julep (No. 1 and 13 in Tween), 2 weeks observation
Description: (§1) This toxicity is estimated by the calculation of the lethal dose of 50 (LD 50) which determines the fatal dose of the substance for 50% of the animals tested. This determination was effected in accordance with a modification of the method by Litchfield and Wilcoxon (J. Pharmacol. Exp. Therap. 1949, 96, 99-113).
(§2) Swiss mice without specific pathogenic organisms were kept in air conditioned rooms 24 to 48 hours before the start of the tests. They were divided into batches of 5.male. and 5.female.. With the animals unfed for 24 hours, the substances were intragastically administered in suspension in 2% Tween 80 or in 6% gummy julep in a volume equivalent to 0.1 ml per 10 g of the weight of the animal.
(§3) They remained under observation for two weeks before being killed and subjected to an autopsy.
(§4) All products were administered in gummy julep except No. 1 and No. 13 which were administered in Tween. The analgesic activity were determined in mice by utilizing as a nociceptive agent, phenylbenzoquinone (PBQ) (modification of the method by Siegmund and co-workers Proc. Soc. Exp. Biol. Med. 1957, 95, 729-31). The process consists of seeking a possible protection for the mouse vis-a-vis abdominal twisting and stretching of the hind legs induced by the parental injection of PBQ. 25 minutes after having orally administered the products to be tested in suspension in 2% Tween 80 or in 6% gummy julep, the PBQ solution was injected and the mice were observed after 5 minutes during the following 5 minutes. For certain products, AD 50 is presented as a measure of activity.

mice [2] = assay: Analgesic activity: protection against abdominal twisting induced by phenylbenzoquinone (PBQ); assay type: in vivo; details: for ED50: Mus musculus, oral, read-out: AD 50 (the source's name)
Description: as §4, with “activity. […]” for “activity.”

rats = assay: Anti-inflammatory activity: carragenic test (carragenine-induced edema of the hind leg); assay type: in vivo, male rats; details: for ED50: oral
Description: All products were administered in gummy julep except No. 1 and No. 13 which were administered in suspension in Tween. The anti-inflammatory activity was determined by the carragenic test with male rats. Inflammation was induced by the injection of 0.1 ml of a 0.5% suspension of carragenine in a physiological serum into the muscular fasciculus of the metatarsal region of the hind leg of the animal. The substance to be tested was orally administered simultaneously with the carragenine. The edema was measured by phethysmography 1, 2, 3, 4, 5 and 6 hours after the administration of the carragenine.
**50 mg/kg No. 13 which were administered in suspension in Tween.

[3] = Oral toxicity in mice (LDO, LD50); assay type: in vivo; details: mouse, in vivo, gummy julep (No. 1 and 13 in Tween), 2 weeks observation
Description: as §1, §2, §3, §4

[4] = Rattus norvegicus, 2H, read-out: ED 50
[5] = Rattus norvegicus, 4H, read-out: ED 50

| Compound | LDO (maximum dose which did not lead to any mortality) (mice [1]) [mg/kg] | % activity (mice [2]; 200 mg/kg oral) [%] | ED50 (mice [2]) [mg/kg] | % activity (inhibition of edema) (rats; 150 mg/kg oral, 2H) [%] | % activity (inhibition of edema) (rats; 150 mg/kg oral, 4H) [%] | % activity (inhibition of edema) (rats; 300 mg/kg oral, 2H) [%] | % activity (inhibition of edema) (rats; 300 mg/kg oral, 4H) [%] | LD50 at 336 h [3] [mg/kg] | % activity (inhibition of edema) (rats; 200 mg/kg oral, 4H) [%] | % activity (inhibition of edema) (rats; 400 mg/kg oral, 4H) [%] | % activity (mice [2]; 100 mg/kg oral) [%] | % activity (inhibition of edema) (rats; 400 mg/kg oral, 2H) [%] | ED50 (rats; 2H) [mg/kg] | ED50 (rats; 4H) [mg/kg] | ED50 (rats; [4]) [mg/kg] | ED50 (rats; [5]) [mg/kg] | % activity (inhibition of edema) (rats; 200 mg/kg oral, 2H) [%] |
| --- | --- | --- | --- | --- | --- | --- | --- | --- | --- | --- | --- | --- | --- | --- | --- | --- | --- |
| O=C1OC(Nc2ccc3c(c2)OC(CO)CO3)c2ccccc21 (centres unmarked) [Product 18] | > 2000 | 44 | 260 | 16 | 6 | 22 | 0 |  |  |  |  |  |  |  |  |  |  |
| CCCCC1(C)Oc2ccc(NC3OC(=O)c4ccccc43)cc2O1 (centres unmarked) [Product 5] | > 2000 | 42 | 270 |  |  |  |  | > 2000 | 28 | 17 |  |  |  |  |  |  |  |
| COC(=O)c1cc2c(cc1NC1OC(=O)c3ccccc31)OCO2 (centres unmarked) [Product 16] | > 2000 |  |  | 12 | 10 |  |  |  |  |  | 33 |  |  |  |  |  |  |
| O=C(O)c1cc2c(cc1NC1OC(=O)c3ccccc31)OCO2 (centres unmarked) [Product 15] | > 2000 | 26 |  | 15 | 21 | 15 | 4 |  |  |  |  |  |  |  |  |  |  |
| N(2,2-dimethyl benzodioxol-1,3 yl-5) 3-amino 3H-isobenzofuranone-1 [Product 7] |  | 86 |  | 68 | 43 |  |  |  |  | 68 |  | 72 | 75 | 220 |  |  |  |
| O=C1OC(Nc2ccc3c(c2)COCO3)c2ccccc21 (centres unmarked) [Product 21] | > 2000 | 61 | 275 |  |  | 44 | 43 |  |  |  |  |  |  |  | 400 | 500 |  |
| CC(=O)OCC1COc2cc(NC3OC(=O)c4ccccc43)ccc2O1 (centres unmarked) [Product 20] | > 2000 | 13 | 550 | 16 | 3 | 10 | 13 |  |  |  |  |  |  |  |  |  |  |
| CCCC1(CC)Oc2ccc(NC3OC(=O)c4ccccc43)cc2O1 (centres unmarked) [Product 6] | 1000 to 2000 | 25 | 420 |  |  |  |  | ≥ 2000 | 22 | 3 |  |  |  |  |  |  |  |
| Cc1cc2c(cc1NC1OC(=O)c3ccccc31)OCO2 (centres unmarked) [Product 9] | 1000 to 2000 |  | 70 |  |  |  |  | > 2000 | 39 | 60 | 83 | 71 |  |  | 220 | 240 | 29 |
| Cc1cc(NC2OC(=O)c3ccccc32)c(C)c2c1OCOC2 (centres unmarked) [Product 22] | > 2000 | 38 | 260 | 35 | 31 |  |  |  |  |  |  |  |  |  |  |  |  |
